Source: US12508271B2, “Prodrugs of 2-PMPA for healthy tissue protection during PSMA-targeted cancer imaging or radiotherapy” (The Johns Hopkins University, priority 2017, dated 2025)

Key:
[1] = Pharmacokinetics/tissue distribution of 2-PMPA in C4-2 prostate cancer tumor-bearing NSG mice; type: in vivo; conditions: 2-PMPA administered directly, 3 mg/kg i.v.
Experimental: To generate a C4-2 in vivo model, 3×10^6 LNCaP-C4-2 cells were subcutaneously injected into the flanks of male NSG mice. When tumors grew to approximately 600-800 mm^3, tumors were excised, aseptically cut into 2-mm×2-mm pieces and frozen back viably (5% DMSO/95% FBS). Tumors were not passaged from mouse to mouse more than 4 times. For the current experiment, two vials of viably frozen explants were thawed at 37° C. Tumor explants were washed in RPMI without FCS and then surgically implanted in a subcutaneous pocket in male NSG mice. When tumors reached 600-800 mm^3, mice were euthanized, tumors excised aseptically, and cut into 2-mm×2-mm pieces prior to re-implantation into 40 mice. When tumors reached 500-700 mm^3, the pharmacokinetic experiment was performed. 2-PMPA (3 mg/kg, i.v.) or a molar equivalent of Tris-POC-2-PMPA (7.62 mg/kg, i.v.) were injected via tail vein after dissolution in vehicle (5% EtOH/10% Tween 80/85% 50 mM HEPES). Mice were then euthanized under isoflurane anesthesia 0.25, 0.5, 1, 3, or 6 hours later (n=3/group). Blood was collected by cardiac puncture into EDTA-lined tubes and stored on ice until plasma was isolated by centrifugation. Salivary glands, kidneys, and tumor were harvested and flash frozen on dry ice. All tissues were stored at −80° C. prior to bioanalysis.

[2] = cited from earlier work
PSMA [3] = target: T1, PSMA (Homo sapiens, UniProt Q04609); conditions: 2-PMPA 0.01 mg co-injection with 177Lu-PSMA I&T (100 MBq); cited from earlier work
PSMA [4] = target: T2, PSMA (Mus musculus, UniProt O35409); conditions: 2-PMPA 0.01 mg co-injection with 177Lu-PSMA I&T (100 MBq); cited from earlier work
renal PSMA = target: T3, renal PSMA (Mus musculus, UniProt O35409); assay: Displacement study of 68Ga-PSMA-617 in non-tumor-bearing NMRI mice (PET); type: in vivo; conditions: 0.5 mg/kg i.v. 1 h after tracer, scan 2 h after tracer
T3 construct: from tissue; host or cells: kidney of living NMRI mice (PET)
Experimental: ^68Ga-PSMA-617 was synthesized as described previously (Afshar-Oromieh et al., 2015). The specific activity of the radiopharmaceutical used in the presented animal study (20 MBq of ^68Ga tagged to 0.2-0.8 μg of precursor peptide) corresponds to the one used in clinical application (Afshar-Oromieh et al., 2015). Three non-tumor-bearing NMRI mice were injected via the tail vein with 20 MBq of ^68Ga-PSMA-617. 1 h post injection, enough time for specific tracer binding to renal PSMA and clearance of unbound tracer from the kidney calices, mice were imaged in a dedicated small animal PET-scanner (Siemens, Inveon) to quantify kidney uptake (baseline-scan). Immediately after the baseline scan 16 μg Tris-POC-2-PMPA (0.5 mg/kg*32.1 g bodyweight (BW) of all mice) in 100 μL saline was injected via the tail vein. Another 1 h later, i.e., 2 h after injection of the PET-tracer, ^68Ga-PSMA-617 kidney uptake was re-evaluated per animal PET (displacement-scan).

PSMA [5] = target: T1, PSMA; assay: Tumor, kidney and salivary gland uptake of 68Ga-PSMA-617 in a prostate cancer patient with and without Tris-POC-2-PMPA pre-dosing (PET); type: in vivo; design: from tissue; host or cells: kidneys, salivary and lacrimal glands, and tumour lesions/metastases of living human subjects (PET / gamma imaging)
Experimental: One patient was PET imaged 1 h after injection of ^68Ga-PSMA-617 and quantified per SUVmax for tracer uptake in tumor, kidneys and salivary glands. On a subsequent day, the same patient was imaged using the same protocol but with pretreatment of 10 mg (0.1 mg/kgBW) Tris-POC-2-PMPA solution (in 2.5 mL of 30% ethanol) 15 min before application of the PET-tracer.

PSMA [6] = target: T1, PSMA; assay: Kidney and salivary gland uptake of 68Ga-PSMA-617 in healthy human subject with and without Tris-POC-2-PMPA pre-dosing (PET); type: in vivo; design: from tissue; host or cells: kidneys, salivary and lacrimal glands, and tumour lesions/metastases of living human subjects (PET / gamma imaging)
Experimental: From a couple of patients who had been imaged (Siemens, mCT) 0.1 h, 1 h, 2 h, 3 h and 4 h after injection of ^68Ga-PSMA-617 previously (Afshar-Oromieh et al., 2015), one subject without relevant tumor-load (<5 mL) was chosen to quantify the physiologic spontaneous tracer uptake in kidneys and salivary gland during the examination time. For the intervention experiment, one healthy volunteer was injected with […] (0.05 mg/kgBW) Tris-POC-2-PMPA solution (in 2.5 mL of 30% ethanol) 15 min before application of the PET-tracer. Again, PET-scans (Siemens, mCT) were performed 0.1 h, 1 h, 2 h, 3 h and 4 h after injection of ^68Ga-PSMA-617 and quantified per SUVmax for tracer uptake in kidneys and salivary glands over time.

PSMA [7] = target: T2, PSMA; assay: Displacement study of 68Ga-PSMA-617 in LNCaP tumor xenograft bearing nude mice (PET); type: in vivo; design: from tissue; host or cells: kidney of nude mice bearing LNCaP xenografts (PET)
Experimental: (§1) 5*10^6 LNCaP cells (BD Biosciences) were implanted behind the left shoulder of n=3 nude mice; tumors reached a diameter of approximately 1-cm diameter 8-12 weeks after inoculation. Baseline uptake of the radiopharmaceutical in kidneys and tumor was quantified per animal PET-scan (Siemens, Inveon) 1 h after injection of ^68Ga-PSMA-617 (10-40 MBq ^68Ga tagged to […] PSMA-617 precursor). Immediately after the baseline scan animals were injected with 0.5 mg/kgBW or 0.05 mg/kgBW Tris-POC-2-PMPA in […] saline or pure saline as control. Another 1 h later, i.e., 2 h after injection of the PET-tracer, ^68Ga-PSMA-617 uptake in kidneys and tumor were re-evaluated per second animal PET (displacement scan).

PSMA [8] = assay: as above; type: in vivo; conditions: average of two animals, 0.5 or 0.05 mg/kgBW after baseline scan; baseline mSUV 1.02; saline control mSUV 0.84
Experimental: as §1

[9] = Comparative tissue distribution of 2-PMPA prodrugs versus equimolar 2-PMPA in nude mice (kidney 2-PMPA by LC/MS-MS); type: in vivo; conditions: 5 mg/kg or molar equivalent, i.p., 30 minutes
Experimental: Nude mice were administered either 2-PMPA or the prodrugs LTP-144 or Tris-POC-2-PMPA (compound 10 of Table 1) (5 mg/kg or molar equivalent, i.p.) prior to brief isoflurane anesthesia, saline perfusion, and sacrificed 30 minutes later. Kidneys were removed and flash frozen in liquid nitrogen. Each tissue sample was assessed for 2-PMPA concentration using previously described LC/MS-MS based bioanalysis (Majer et al., 2016). In addition, a prodrug of the urea-based PSMA ligand ZJ-43 (with similar pro-moiety modifications to Tris-POC-2-PMPA) was tested using similar methods.

PSMA [10] = target: T1, PSMA; assay: 177Lu-PSMA-617 radiation dosimetry in mCRPC patients with Tris-POC-2-PMPA pre-treatment versus historical controls; type: in vivo; design: from tissue; host or cells: kidneys, salivary and lacrimal glands, and tumour lesions/metastases of living human subjects (PET / gamma imaging); conditions: for 177Lu-PSMA-617 absorbed dose, kidneys / 177Lu-PSMA-617 absorbed dose, parotid gland / 177Lu-PSMA-617 absorbed dose, submandibular gland / 177Lu-PSMA-617 mean dose to metastases: 15 minutes prior to infusion
Experimental: ^177Lu-PSMA-617 was offered as surrogate therapy in accordance with the updated Declaration of Helsinki, paragraph-37 “Unproven Interventions in Clinical Practice,” and in accordance with German regulations for “compassionate use,” which includes priority of all approved treatments (without contraindications) and confirmation of the indication by both a nuclear medicine physician and an external expert in urology or oncology. No systematic patient selection was performed, except all patients had to present with a PSMA-positive tumor phenotype based on PSMA imaging. All patients were informed about the experimental nature of this therapy and gave written informed consent. The institutional review board approved this retrospective study. Two patients were pre-treated with Tris-POC-2-PMPA prior to administration of ^177Lu-PSMA-617. […] Dosimetry data from historical controls presented herein are derived from patients treated under the same protocol at our center as previously reported (J Nucl Med. 2016 August; 57(8):1170-6.). All dosimetry methods were conducted as previously described in that report (J Nucl Med. 2016 August; 57(8):1170-6.).

[11] = 10 mg, i.v., 15 minutes prior to tracer, PET 1 h p.i., same patient

T1 sequence (Q04609 whole entry): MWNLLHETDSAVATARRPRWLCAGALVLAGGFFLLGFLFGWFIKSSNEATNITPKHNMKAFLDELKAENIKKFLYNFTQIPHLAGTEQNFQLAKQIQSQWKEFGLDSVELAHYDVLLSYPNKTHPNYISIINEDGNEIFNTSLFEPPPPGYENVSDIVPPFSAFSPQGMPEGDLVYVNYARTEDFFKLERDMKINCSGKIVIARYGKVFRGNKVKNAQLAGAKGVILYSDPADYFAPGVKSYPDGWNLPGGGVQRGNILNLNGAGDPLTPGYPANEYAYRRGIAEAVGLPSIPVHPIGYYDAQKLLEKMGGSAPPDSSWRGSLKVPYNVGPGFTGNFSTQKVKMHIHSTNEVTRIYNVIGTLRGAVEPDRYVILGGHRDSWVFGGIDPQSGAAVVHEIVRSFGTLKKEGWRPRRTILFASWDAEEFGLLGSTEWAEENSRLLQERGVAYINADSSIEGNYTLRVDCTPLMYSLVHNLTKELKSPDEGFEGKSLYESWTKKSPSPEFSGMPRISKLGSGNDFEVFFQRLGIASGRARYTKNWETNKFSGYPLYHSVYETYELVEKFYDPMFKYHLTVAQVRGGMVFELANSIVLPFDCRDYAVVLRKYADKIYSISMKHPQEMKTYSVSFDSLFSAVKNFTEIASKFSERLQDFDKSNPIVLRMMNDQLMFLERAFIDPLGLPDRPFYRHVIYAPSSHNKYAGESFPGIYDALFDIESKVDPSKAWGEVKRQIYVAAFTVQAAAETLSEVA
T2 sequence (O35409 whole entry): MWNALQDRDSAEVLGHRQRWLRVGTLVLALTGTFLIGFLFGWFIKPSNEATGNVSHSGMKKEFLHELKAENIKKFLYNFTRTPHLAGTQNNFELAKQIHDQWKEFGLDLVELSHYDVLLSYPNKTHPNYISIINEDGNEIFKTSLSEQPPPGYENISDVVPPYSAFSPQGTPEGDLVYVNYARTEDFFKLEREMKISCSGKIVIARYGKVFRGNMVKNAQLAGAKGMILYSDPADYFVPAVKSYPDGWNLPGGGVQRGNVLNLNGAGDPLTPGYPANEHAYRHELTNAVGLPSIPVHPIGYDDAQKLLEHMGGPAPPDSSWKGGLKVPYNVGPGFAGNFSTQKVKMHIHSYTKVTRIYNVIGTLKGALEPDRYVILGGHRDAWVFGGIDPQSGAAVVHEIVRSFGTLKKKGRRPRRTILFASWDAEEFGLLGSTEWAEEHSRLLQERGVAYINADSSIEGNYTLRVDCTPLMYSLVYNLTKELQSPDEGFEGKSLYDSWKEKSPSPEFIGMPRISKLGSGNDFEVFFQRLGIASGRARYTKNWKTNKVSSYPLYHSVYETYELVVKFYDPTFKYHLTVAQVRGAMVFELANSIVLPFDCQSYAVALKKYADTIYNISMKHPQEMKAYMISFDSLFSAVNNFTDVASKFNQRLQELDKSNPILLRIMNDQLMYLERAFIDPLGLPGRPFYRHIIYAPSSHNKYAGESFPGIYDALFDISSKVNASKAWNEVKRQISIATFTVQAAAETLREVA
T3 sequence (O35409 whole entry): as above

O=C(O)CCC(CP(=O)(O)O)C(=O)O (stereo not shown) [Compound 2-PMPA, 2-(phosphonomethyl)pentanedioic acid]
2-PMPA kidney exposure, fold lower than achieved with TRIS-POC-2-PMPA delivery [1]: 4 fold | 2-PMPA salivary gland exposure, fold lower than achieved with TRIS-POC-2-PMPA delivery [1]: 10 fold | salivary gland penetration ([2]; 2-PMPA administered as parent): little to no | oral availability ([2]; in vivo, po): negligible | inhibition of tumor uptake of the radiotherapeutic (PSMA [3]): more than 50% | nephrotoxicity 3 months later (PSMA [4]): attenuated nephrotoxicity | reduction of absorbed dose to the kidneys (PSMA [4]): 83%

CC(C)OC(=O)OCOC(=O)C(CCC(=O)O)CP(=O)(OCOC(=O)OC(C)C)OCOC(=O)OC(C)C (stereo not shown) [Tris-POC-2-PMPA]
residual kidney uptake relative to baseline (renal PSMA): < 10 % of baseline-uptake | residual kidney uptake of 68Ga-PSMA-617 in displacement-scan (renal PSMA; baseline-scan 3.4 mSUV): 0.3 mSUV | mean change of 68Ga-PSMA-617 uptake in metastases (PSMA [5]; 10 mg, i.v., 15 minutes prior to tracer): 3% | 68Ga-PSMA-617 uptake in kidneys after pre-treatment (PSMA [5]; [11]): 8.5 SUVmax | 68Ga-PSMA-617 uptake in metastases after pre-treatment (PSMA [5]; [11]): 3.9-8.8 SUVmax | 68Ga-PSMA-617 uptake in parotid gland after pre-treatment (PSMA [5]; [11]): 10.6 SUVmax | 68Ga-PSMA-617 uptake in submandibular gland after pre-treatment (PSMA [5]; [11]): 14.6 SUVmax | effect on tumor uptake of the tracer (PSMA [5]; intraindividual comparison, prostate cancer patient): completely spared tumor uptake | decrease of maximum 68Ga-PSMA-617 uptake in kidney parenchyma versus representative control (PSMA [6]; 5 mg (0.05 mg/kgBW) 15 min before tracer, healthy volunteer): 65% | maximum 68Ga-PSMA-617 uptake in parotid glands (PSMA [6]; 5 mg (0.05 mg/kgBW) 15 min before tracer, control without pre-dosing 41.2): 13.5 SUVmax | maximum 68Ga-PSMA-617 uptake in kidney parenchyma (PSMA [6]; 5 mg (0.05 mg/kgBW) 15 min before tracer, control without pre-dosing 47.5): 16.5 SUVmax | displacement of 68Ga-PSMA-617 binding to kidney and salivary glands (PSMA [6]; pre-administration, healthy human male): approximately 65% | kidney uptake of 68Ga-PSMA-617 in displacement-scan (PSMA [7]; 0.5 or 0.05 mg/kgBW after baseline scan, baseline mSUV 2.36, saline control mSUV 0.47): 0.24 mSUV | kidney uptake lower than achieved with forced diuresis (saline control) (PSMA [7]; displacement-scan, 2 h after tracer): 50% | tumor uptake of 68Ga-PSMA-617 in displacement-scan (PSMA [8]): 1.00 mSUV | concentrations of 2-PMPA in the kidney compared to an equimolar dose of 2-PMPA [9]: significantly increased | 177Lu-PSMA-617 absorbed dose, kidneys (PSMA [10]; patient 1, 10 mg, i.v.): 0.38 Gy/GBq | 177Lu-PSMA-617 absorbed dose, parotid gland (PSMA [10]; patient 1, 10 mg, i.v.): 0.24 Gy/GBq | 177Lu-PSMA-617 absorbed dose, submandibular gland (PSMA [10]; patient 1, 10 mg, i.v.): 0.5 Gy/GBq | 177Lu-PSMA-617 mean dose to metastases (PSMA [10]; patient 1, 10 mg, i.v.): 8.03 Gy/GBq | 177Lu-PSMA-617 absorbed dose, kidneys (PSMA [10]; patient 2, 10 mg, i.v.): 0.43 Gy/GBq | 177Lu-PSMA-617 absorbed dose, parotid gland (PSMA [10]; patient 2, 10 mg, i.v.): 0.46 Gy/GBq | 177Lu-PSMA-617 absorbed dose, submandibular gland (PSMA [10]; patient 2, 10 mg, i.v.): 0.44 Gy/GBq | 177Lu-PSMA-617 mean dose to metastases (PSMA [10]; patient 2, 10 mg, i.v.): 13.15 Gy/GBq | effect on liver exposure to 177Lu-PSMA-617 (PSMA [10]; pre-treatment): modestly reduce | effect on spleen dose of 177Lu-PSMA-617 (PSMA [10]; pre-treatment): no clear effect | dose reduction to the lacrimal glands relative to mean control values (PSMA [10]; pre-treatment before 177Lu-PSMA-617): about 82% | effect on the 177Lu-PSMA-617 dose to metastases (PSMA [10]; pre-treatment, versus historical controls): little or no effect | dose reduction, salivary glands, relative to historical controls (PSMA [10]; two patients, prior to infusion of 177Lu-PSMA-617): 72% | mean absorbed dose reduction, kidneys, relative to historical controls (PSMA [10]; two patients, 10 mg, i.v.): 45% | mean absorbed dose reduction, parotid gland, relative to historical controls (PSMA [10]; two patients, 10 mg, i.v.): 76% | mean absorbed dose reduction, submandibular gland, relative to historical controls (PSMA [10]; two patients, 10 mg, i.v.): 67% | mean absorbed dose reduction, kidneys, relative to historical controls (PSMA [10]; two patients, 10 mg, i.v., listed as TRIS-POC-2-PMPA): 48%
